{"source": "paper PMC8922279", "about": "“Identification of β-Lactams Active against Mycobacterium tuberculosis by a Consortium of Pharmaceutical Companies and Academic Institutions” (ACS Infectious Diseases, 2022)", "key": {"in vitro [1]": {"test": "in vitro", "conditions": "SD, rat, plasma, Plasma stability % Remaining"}, "in vivo [2]": {"test": "in vivo", "conditions": "DHP-1 knockout, mouse, sc, 300 mg/kg"}, "[3]": {"conditions": "simulated gi fluid, 10 μM, pH 6.5"}, "in vitro [4]": {"test": "in vitro", "conditions": "SD, rat, plasma, pH 7.4, % bound to plasma"}, "wild-type Mtb H37Rv": {"system": "wild-type Mtb H37Rv", "assay_type": "in vivo, 129sv DHP-1 knockout mice"}, "[5]": {"conditions": "male, CD-1, mouse, 2 h, 2 μM"}, "plasma proteins": {"system": "plasma proteins", "conditions": "4 h, 2 μM, pH 7.4"}, "Mtb H37Rv": {"system": "Mtb H37Rv", "test": "MIC90 against replicating (R) Mtb H37Rv, with or without clavulanate", "assay_type": "cell-based, Mycobacterium tuberculosis", "conditions": "Table S4"}, "physchem [6]": {"test": "physchem", "conditions": "simulated gi fluid, pH 1.2"}, "CYP1A2": {"system": "CYP1A2", "assay_type": "in vitro ADME", "conditions": "human, hepatocytes, 3 µM", "procedure": "(§1) Metabolic stability and induction of human hepatocytes were performed as previously described.[71]"}, "CYP2B6": {"system": "CYP2B6", "assay_type": "in vitro ADME", "conditions": "human, hepatocytes, 3 µM", "procedure": "as §1"}, "CYP3A5": {"system": "CYP3A5", "assay_type": "in vitro ADME", "conditions": "human, hepatocytes, 3 µM", "procedure": "as §1"}, "[7]": {"conditions": "female, 129sv DHP-1 knockout, mouse, in vivo"}, "in vitro [8]": {"test": "in vitro", "conditions": "human"}, "physchem [9]": {"test": "physchem", "assay_type": "physicochemical", "conditions": "thermodynamic from solid", "procedure": "Compounds were prepared at 1 mg/mL and left overnight at room temperature with stirring in phosphate buffer, 50 mM, at pH 7.4 or in 0.1 N HCl at pH 1. After separation of the soluble fraction by centrifugation, samples were filtered onto a polytetrafluoroethylene […] filter (Millipore) and then analyzed by HPLC."}, "in vivo [10]": {"test": "in vivo", "conditions": "female, CD-1, mouse"}, "in vitro [11]": {"test": "in vitro", "conditions": "monkey, plasma"}}}
{"smiles": "O=C(Cc1ccc(C2=NCCN2)cc1)N[C@@H]1C(=O)N2C(C(=O)O)=C(CSc3nncs3)CS[C@H]12", "note": "[TBBL-0000316]", "values": [{"measurement": "remaining at 2 h, 2 μM", "setting": "in vitro [1]", "value": 85.9, "unit": "%"}, {"measurement": "AUC(0-t)", "setting": "in vivo [2]", "value": "60.2 ± 11.4", "unit": "µg·h/mL"}, {"measurement": "Cmax", "setting": "in vivo [2]", "value": "28.7 ± 0.866", "unit": "µg/mL"}, {"measurement": "Tmax", "setting": "in vivo [2]", "value": "60 to 120", "unit": "min"}, {"measurement": "FaSSIF Stability, % remaining, 6h", "setting": "[3]; 6 h", "value": 95, "unit": "%"}, {"measurement": "FaSSIF Stability, % remaining, 24h", "setting": "[3]; 24 h", "value": 84, "unit": "%"}, {"measurement": "fraction unbound at 4 h, 2 μM", "setting": "in vitro [4]", "value": 0.378}, {"measurement": "Log10 CFU per mouse (lungs), Mean", "setting": "wild-type Mtb H37Rv; 50 mg/kg sc bid + clavulanate 100 mg/kg po bid, days 9-15, lungs day 16, untreated day 16 mean 9.1", "value": 8.2, "unit": "Log10 CFU"}, {"measurement": "reduction of lung CFU compared to untreated control mice", "setting": "wild-type Mtb H37Rv; mouse, in vivo", "value": 0.9, "unit": "log10"}, {"measurement": "Plasma stability % Remaining, Mouse", "setting": "[5]", "value": 89, "unit": "%"}, {"measurement": "% bound to plasma, CD-1 Mouse", "setting": "plasma proteins", "value": 18, "unit": "%"}, {"measurement": "Mtb H37Rv R + CLAV (MIC90)", "setting": "Mtb H37Rv; clavulanate 4 μg/mL", "value": 0.5, "unit": "µM"}, {"measurement": "Mtb H37Rv R (MIC90)", "setting": "Mtb H37Rv; no clavulanate", "value": 44.7, "unit": "µM"}, {"measurement": "remaining at 1 h, 10 μM", "setting": "physchem [6]", "value": 83.7, "unit": "%"}, {"measurement": "remaining at 24 h, 10 μM", "setting": "physchem [6]", "value": 0.45, "unit": "%"}, {"measurement": "induction of expression of CYP1A2", "setting": "CYP1A2", "value": "< 2", "unit": "fold"}, {"measurement": "induction of expression of CYP2B6", "setting": "CYP2B6", "value": "< 2", "unit": "fold"}, {"measurement": "induction of expression of CYP3A5", "setting": "CYP3A5", "value": "< 2", "unit": "fold"}, {"measurement": "Tlast", "setting": "[7]", "value": 6.0, "unit": "h"}, {"measurement": "Papp A→B at 120 min, 3 μM", "setting": "in vitro [8]; Caco-2, pH 7.4", "value": 3.1, "unit": "nm/s"}, {"measurement": "Papp B→A at 120 min, 3 μM", "setting": "in vitro [8]; Caco-2, pH 7.4", "value": 3.2, "unit": "nm/s"}, {"measurement": "Papp at 120 min, 3 µM", "setting": "in vitro [8]; Caco-2, pH 7.4", "value": 3, "unit": "nm/s"}, {"measurement": "efflux ratio at 120 min, 3 μM", "setting": "in vitro [8]; Caco-2, pH 7.4", "value": 1.06}, {"measurement": "recovery at 120 min, 3 μM", "setting": "in vitro [8]; Caco-2, pH 7.4, Caco-2 Mean Recovery % A to B", "value": 104, "unit": "%"}, {"measurement": "recovery at 120 min, 3 μM", "setting": "in vitro [8]; Caco-2, pH 7.4, Caco-2 Mean Recovery % B to A", "value": 110, "unit": "%"}, {"measurement": "solubility", "setting": "physchem [9]; pH 1, simulated gastric fluid", "value": 0.402, "unit": "mg/mL"}, {"measurement": "solubility", "setting": "physchem [9]; pH 7.4, aqueous buffer", "value": "> 1", "unit": "mg/mL"}, {"measurement": "AUC(0-t)", "setting": "in vivo [10]; iv, 5 mg/kg", "value": 37.1, "unit": "µg·h/mL"}, {"measurement": "Vd", "setting": "in vivo [10]; iv, 5 mg/kg", "value": 0.11, "unit": "L/kg"}, {"measurement": "clearance", "setting": "in vivo [10]; iv, 5 mg/kg", "value": 0.135, "unit": "L/h/kg"}, {"measurement": "half-life", "setting": "in vivo [10]; iv, 5 mg/kg", "value": 34.8, "unit": "min"}, {"measurement": "k el", "setting": "in vivo [10]; iv, 5 mg/kg", "value": 0.000333, "unit": "s⁻¹"}, {"measurement": "AUC(0-t)", "setting": "in vivo [10]; po, 25 mg/kg", "value": 0.542, "unit": "µg·h/mL"}, {"measurement": "bioavailability", "setting": "in vivo [10]; po, 25 mg/kg", "value": 0.3, "unit": "%"}, {"measurement": "remaining at 2 h, 2 μM", "setting": "in vitro [11]", "value": 114, "unit": "%"}]}
